What was measured:
Type in all cases: cell-based
Design in all cases: unit not given here
[1] = system: Staphylococcus epidermidis EPI2; assay: MIC, standard agar-dilution assay (Table II)
Protocol: (§1) The MIC's in Table II were determined by standard agar-dilution assays. The MIC's in Table III were obtained using a conventional broth-dilution microtiter test.

[2] = system: Streptococcus Group D 9960; assay: MIC, standard agar-dilution assay (Table II)
Protocol: as §1

[3] = system: Staphylococcus aureus V41; assay: MIC, standard agar-dilution assay (Table II); settings: Staphylococcus aureus V41, penicillin-resistant strain
Protocol: as §1

[4] = system: Haemophilus influenzae Holt; assay: MIC, standard agar-dilution assay (Table II); settings: ampicillin-sensitive strain
Protocol: as §1

[5] = system: Streptococcus pyogenes C203; assay: MIC, standard agar-dilution assay (Table II)
Protocol: as §1

[6] = system: Staphylococcus aureus X1.1; assay: MIC, standard agar-dilution assay (Table II)
Protocol: as §1

[7] = system: Streptococcus pneumoniae Park I; assay: MIC, standard agar-dilution assay (Table II)
Protocol: as §1

[8] = system: Staphylococcus aureus X400; assay: MIC, standard agar-dilution assay (Table II); settings: Staphylococcus aureus X400, methicillin-resistant strain
Protocol: as §1

[9] = system: Staphylococcus aureus S13E; assay: MIC, standard agar-dilution assay (Table II)
Protocol: as §1

[10] = system: Haemophilus influenzae R252; assay: MIC, standard agar-dilution assay (Table II); settings: Haemophilus influenzae R252, ampicillin-resistant strain
Protocol: as §1

[11] = system: Staphylococcus epidermidis EPI1; assay: MIC, standard agar-dilution assay (Table II)
Protocol: as §1

[12] = system: Streptococcus Group D X66; assay: MIC, standard agar-dilution assay (Table II)
Protocol: as §1

Mycoplasma synoviae = assay: MIC, broth-dilution microtiter test (Table III)
Protocol: as §1

[13] = system: Pasteurella multocida 17E; assay: MIC, broth-dilution microtiter test (Table III); settings: bovine isolate
Protocol: as §1

[14] = system: Pasteurella haemolytica 41D; assay: MIC, broth-dilution microtiter test (Table III)
Protocol: as §1

[15] = system: Pasteurella haemolytica 22C; assay: MIC, broth-dilution microtiter test (Table III)
Protocol: as §1

[16] = system: Pasteurella multocida 40G; assay: MIC, broth-dilution microtiter test (Table III)
Protocol: as §1

Staphylococcus aureus = assay: MIC, broth-dilution microtiter test (Table III)
Protocol: as §1

[17] = system: Pasteurella multocida 22A; assay: MIC, broth-dilution microtiter test (Table III)
Protocol: as §1

Mycoplasma gallisepticum = assay: MIC, broth-dilution microtiter test (Table III)
Protocol: as §1

Streptococcus sp. 80 = assay: MIC, broth-dilution microtiter test (Table III)
Protocol: as §1

Mycoplasma hyorhinis = assay: MIC, broth-dilution microtiter test (Table III)
Protocol: as §1

[18] = system: Pasteurella multocida 60A; assay: MIC, broth-dilution microtiter test (Table III); settings: avian isolate
Protocol: as §1

[19] = system: Pasteurella haemolytica 23C; assay: MIC, broth-dilution microtiter test (Table III)
Protocol: as §1

[20] = system: Pasteurella multocida 68C; assay: MIC, broth-dilution microtiter test (Table III)
Protocol: as §1

Compound | minimal inhibitory concentration (MIC) [1] | minimal inhibitory concentration (MIC) [2] | minimal inhibitory concentration (MIC) [3] | minimal inhibitory concentration (MIC) [4] | minimal inhibitory concentration (MIC) [5] | minimal inhibitory concentration (MIC) [6] | minimal inhibitory concentration (MIC) [7] | minimal inhibitory concentration (MIC) [8] | minimal inhibitory concentration (MIC) [9] | minimal inhibitory concentration (MIC) [10] | minimal inhibitory concentration (MIC) [11] | minimal inhibitory concentration (MIC) [12] | minimal inhibitory concentration (MIC) (Mycoplasma synoviae) | minimal inhibitory concentration (MIC) [13] | minimal inhibitory concentration (MIC) [14] | minimal inhibitory concentration (MIC) [15] | minimal inhibitory concentration (MIC) [16] | minimal inhibitory concentration (MIC) (Staphylococcus aureus) | minimal inhibitory concentration (MIC) [17] | minimal inhibitory concentration (MIC) (Mycoplasma gallisepticum) | also measured
CCC1OC(=O)CC(O)C(C)C(OC2OC(C)C(O)C(N(C)C)C2OC(C)=O)C(CC=O)CC(C)C(=O)C=CC(C)=CC1COC(=O)C12CC3CC(CC(C3)C1)C2 (centres unmarked) [Compound 69] | 1 | 2 | 1 | 8 | 1 | 1 | 0.5 | 1 | 1 | 16 | 1 | 2 | 1.56 | 12.5 | 25 | 25 | 12.5 | 6.25 | 12.5 | 0.78 | minimal inhibitory concentration (MIC) (Streptococcus sp. 80): 1.56; minimal inhibitory concentration (MIC) (Mycoplasma hyorhinis): 3.12; minimal inhibitory concentration (MIC) [18]: 12.5; minimal inhibitory concentration (MIC) [19]: 25; minimal inhibitory concentration (MIC) [20]: 12.5
CCC1OC(=O)CC(O)C(C)C(OC2OC(C)C(O)C(N(C)C)C2O)C(CC=O)CC(C)C(=O)C=CC(C)=CC1COC(=O)c1ccc2ccccc2c1 (centres unmarked) [Compound 59] | 0.5 | 0.5 | 0.5 | 4 | 0.5 | 0.5 | 0.125 | 0.5 | 0.5 | 2 | 0.5 | 0.5 | 1.56 | 3.12 | 12.5 | 12.5 | 3.12 | 0.78 | 12.5 | 0.39 | minimal inhibitory concentration (MIC) (Streptococcus sp. 80): 0.39; minimal inhibitory concentration (MIC) (Mycoplasma hyorhinis): 6.25; minimal inhibitory concentration (MIC) [18]: 3.12; minimal inhibitory concentration (MIC) [19]: 12.5; minimal inhibitory concentration (MIC) [20]: 3.12
CCC1OC(=O)CC(O)C(C)C(OC2OC(C)C(OC(C)=O)C(N(C)C)C2OC(C)=O)C(CC=O)CC(C)C(=O)C=CC(C)=CC1COC(=O)C(Cl)Cl (centres unmarked) [Compound 66, 2',4'-Di-O-acetyl-23-O-dichloroacetyl-OMT] | 2 | 2 | 2 | 2 | 0.25 | 1 | 0.125 | 2 | 1 | 1 | 1 | 1 | 1.56 | 3.12 | 25 | 25 | 3.12 | 3.12 | 3.12 | 1.56 | minimal inhibitory concentration (MIC) (Streptococcus sp. 80): < 0.78; minimal inhibitory concentration (MIC) (Mycoplasma hyorhinis): 6.25; minimal inhibitory concentration (MIC) [18]: 6.25; minimal inhibitory concentration (MIC) [19]: 12.5; minimal inhibitory concentration (MIC) [20]: 3.12
CCC1OC(=O)CC(O)C(C)C(OC2OC(C)C(OC(=O)c3ccccc3)C(N(C)C)C2OC(=O)c2ccccc2)C(CC=O)CC(C)C(=O)C=CC(C)=CC1CO (centres unmarked) [Compound 5, 2',4'-Di-O-benzoyl-OMT] | 4 | 8 | 32 | 64 | 2 | 8 | 0.5 | 64 | 32 | 64 | 8 | 8 | 12.5 | 50 | > 50 | > 50 | 50 | 6.25 | > 50 | 12.5 | minimal inhibitory concentration (MIC) (Streptococcus sp. 80): 3.12; minimal inhibitory concentration (MIC) (Mycoplasma hyorhinis): 50; minimal inhibitory concentration (MIC) [18]: 50; minimal inhibitory concentration (MIC) [19]: > 50; minimal inhibitory concentration (MIC) [20]: 25
CCC1OC(=O)CC(O)C(C)C(OC2OC(C)C(O)C(N(C)C)C2O)C(CC=O)CC(C)C(=O)C=CC(C)=CC1COC(=O)CCCCc1ccccc1 (centres unmarked) [Compound 61] | 0.25 | 0.25 | 0.25 | 2 | 0.25 | 0.25 | 0.06 | 0.25 | 0.25 | 2 | 0.25 | 0.25 | 1.56 | 6.25 | 6.25 | 12.5 | 6.25 | 1.56 | 6.25 | 0.78 | minimal inhibitory concentration (MIC) (Streptococcus sp. 80): 1.56; minimal inhibitory concentration (MIC) (Mycoplasma hyorhinis): 6.25; minimal inhibitory concentration (MIC) [18]: 3.12; minimal inhibitory concentration (MIC) [19]: 12.5; minimal inhibitory concentration (MIC) [20]: 6.25

From patent US4401660A, “Ester derivatives of 5-O-mycaminosyl tylonolide and method of using same” (Eli Lilly and Company, priority 1981, dated 1983)
